Measurements: PubChem BioAssay (NCI)
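Compound exposure: 48 hours, 5 concentrations, 96-well plates. At the TGI there is no net growth.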

How the values were obtained:
Assay in all cases: NCI anticancer screen, dose series, 48 h
OVCAR-3 ovarian = system: OVCAR-3 ovarian
MOLT-4 leukemia = system: MOLT-4 leukemia
KM12 colon = system: KM12 colon
HOP-92 NSCLC = system: HOP-92 NSCLC
NCI-H226 lung = system: NCI-H226 lung
SNB-75 CNS = system: SNB-75 CNS
UO-31 renal = system: UO-31 renal
HS 578T breast = system: HS 578T breast
UACC-62 melanoma = system: UACC-62 melanoma
786-0 renal = system: 786-0 renal
PC-3 prostate = system: PC-3 prostate
UACC-257 melanoma = system: UACC-257 melanoma
SNB-19 CNS = system: SNB-19 CNS
NCI-H23 lung = system: NCI-H23 lung
M14 melanoma = system: M14 melanoma
HOP-62 NSCLC = system: HOP-62 NSCLC
OVCAR-8 ovarian = system: OVCAR-8 ovarian
ACHN renal = system: ACHN renal
RXF 393 renal = system: RXF 393 renal
SK-MEL-2 melanoma = system: SK-MEL-2 melanoma
K-562 leukemia = system: K-562 leukemia
SN12C renal = system: SN12C renal
HCC-2998 colon = system: HCC-2998 colon
SK-MEL-5 melanoma = system: SK-MEL-5 melanoma
A549 NSCLC = system: A549 NSCLC
NCI/ADR-RES ovarian = system: NCI/ADR-RES ovarian
SK-OV-3 ovarian = system: SK-OV-3 ovarian
HL-60(TB) leukemia = system: HL-60(TB) leukemia
SR leukemia = system: SR leukemia
COLO 205 colon = system: COLO 205 colon
NCI-H522 lung = system: NCI-H522 lung
OVCAR-4 ovarian = system: OVCAR-4 ovarian
SF-539 CNS = system: SF-539 CNS
HCT-15 colon = system: HCT-15 colon
SK-MEL-28 melanoma = system: SK-MEL-28 melanoma
SF-295 CNS = system: SF-295 CNS
IGROV1 ovarian = system: IGROV1 ovarian
A498 renal = system: A498 renal
CAKI-1 renal = system: CAKI-1 renal
MCF7 breast = system: MCF7 breast
SW-620 colon = system: SW-620 colon
EKVX NSCLC = system: EKVX NSCLC
T-47D breast = system: T-47D breast
NCI-H460 lung = system: NCI-H460 lung
U251 CNS = system: U251 CNS
BT-549 breast = system: BT-549 breast
CCRF-CEM leukemia = system: CCRF-CEM leukemia
MDA-MB-231 breast = system: MDA-MB-231 breast
TK-10 renal = system: TK-10 renal
SF-268 CNS = system: SF-268 CNS
OVCAR-5 ovarian = system: OVCAR-5 ovarian
RPMI-8226 leukemia = system: RPMI-8226 leukemia
HT29 colon = system: HT29 colon
MDA-MB-435 = system: MDA-MB-435
DU-145 prostate = system: DU-145 prostate
HCT-116 colon = system: HCT-116 colon

CCCCCCCCCCCCc1ccsc1-c1ccc(-c2ccc(-c3sc(-c4cc(CCCCCCCCCCCC)c(-c5ccc(-c6ccc(-c7sccc7CCCCCCCCCCCC)s6)s5)s4)cc3CCCCCCCCCCCC)s2)s1
TGI (OVCAR-3 ovarian): > 100 µM
TGI (MOLT-4 leukemia): > 100 µM
TGI (KM12 colon): > 100 µM
TGI (HOP-92 NSCLC): > 100 µM
TGI (NCI-H226 lung): > 100 µM
TGI (SNB-75 CNS): > 100 µM
TGI (UO-31 renal): > 100 µM
TGI (HS 578T breast): > 100 µM
TGI (UACC-62 melanoma): > 100 µM
TGI (786-0 renal): > 100 µM
TGI (PC-3 prostate): > 100 µM
TGI (UACC-257 melanoma): > 100 µM
TGI (SNB-19 CNS): > 100 µM
TGI (NCI-H23 lung): > 100 µM
TGI (M14 melanoma): > 100 µM
TGI (HOP-62 NSCLC): > 100 µM
TGI (OVCAR-8 ovarian): > 100 µM
TGI (ACHN renal): > 100 µM
TGI (RXF 393 renal): > 100 µM
TGI (SK-MEL-2 melanoma): > 100 µM
TGI (K-562 leukemia): > 100 µM
TGI (SN12C renal): > 100 µM
TGI (HCC-2998 colon): > 100 µM
TGI (SK-MEL-5 melanoma): > 100 µM
TGI (A549 NSCLC): > 100 µM
TGI (NCI/ADR-RES ovarian): > 100 µM
TGI (SK-OV-3 ovarian): > 100 µM
TGI (HL-60(TB) leukemia): > 100 µM
TGI (SR leukemia): 75.2 µM
TGI (COLO 205 colon): > 100 µM
TGI (NCI-H522 lung): > 100 µM
TGI (OVCAR-4 ovarian): > 100 µM
TGI (SF-539 CNS): > 100 µM
TGI (HCT-15 colon): > 100 µM
TGI (SK-MEL-28 melanoma): > 100 µM
TGI (SF-295 CNS): > 100 µM
TGI (IGROV1 ovarian): > 100 µM
TGI (A498 renal): > 100 µM
TGI (CAKI-1 renal): > 100 µM
TGI (MCF7 breast): > 100 µM
TGI (SW-620 colon): > 100 µM
TGI (EKVX NSCLC): > 100 µM
TGI (T-47D breast): > 100 µM
TGI (NCI-H460 lung): > 100 µM
TGI (U251 CNS): > 100 µM
TGI (BT-549 breast): > 100 µM
TGI (CCRF-CEM leukemia): > 100 µM
TGI (MDA-MB-231 breast): > 100 µM
TGI (TK-10 renal): > 100 µM
TGI (SF-268 CNS): > 100 µM
TGI (OVCAR-5 ovarian): > 100 µM
TGI (RPMI-8226 leukemia): > 100 µM
TGI (HT29 colon): > 100 µM
TGI (MDA-MB-435): > 100 µM
TGI (DU-145 prostate): > 100 µM
TGI (HCT-116 colon): > 100 µM
